From ChEMBL document CHEMBL1150227, “A new dammarane-type triterpene glycoside from Polyscias fulva” (2001) come the findings set out here.

Converted amounts (≈) assume the structure as drawn.

For assay [1], the system named is Candida albicans. Briefly: Antifungal activity against Candida albicans. Format: functional.
Assay [2] concerns Cryptococcus neoformans. Description: Antifungal activity against Cryptococcus neoformans. In kind it is functional.

With `C[C@@H]1O[C@@H](O[C@H]2[C@H](O[C@H]3CC[C@@]4(C)[C@@H](CC[C@]5(C)[C@@H]4CC=C4[C@@H]6CC(C)(C)CC[C@]6(C(=O)O)CC[C@]45C)[C@]3(C)CO)OC[C@H](O)[C@@H]2O)[C@H](O)[C@H](O)[C@H]1O` [ALPHA-HEDERIN], the MIC was 6.25 µg/mL (≈ 8.32 µM) in assay [1] and 25 µg/mL (≈ 33.3 µM) in assay [2].
